Experimental data published in US7049321B2, “Methods and pharmaceutical compositions for treatment of central and peripheral nervous system disorders and compounds useful therefor” (Israel Institute for Biological Research, priority 2002, dated 2006).

Assays:
[1] = test system: Rat pheochromocytoma cells transfected with M1 mAChR; format: cell-based; settings: β-A25-35 (10 & 20 μM)
Procedure: Confluent rat pheochromocytoma cells transfected with the M1 mAChR cultures were detached with trypsin, washed and plated in 24-well, 6-well, 60-mm or 100-mm plates that were precoated with rat tail collagen (Sigma, Israel). Several experiments were performed in serum-free medium. For 3-(4,5-dimethylthiazol-2-yl)-2,5-diphenyl-tetrazolium bromide (MTT) assay, cells (1.5×10^4) were plated in 96-well collagen-precoated plates, in serum-free medium, with or without various drugs for 24 hours. For differentiation, cells were grown in the presence of 1% FCS and 1% HS, with addition of 50 ng/ml NGF for 7 days, to cause full differentiation. […] After 7 days, cells were washed and the medium was either replaced to serum-free, or cells were detached and replated in serum-free medium. Cells in serum-free medium were treated either with Aβ peptides that were previously “aged” or with H2O2. Tested compounds were added together with the insults for the indicated time, unless otherwise stated.
Cells were plated in 96-well plates in 100 μl medium. After exposure to various treatments, 10 μl of 5 mg/ml MTT [3-(4,5-dimethylthiazol-2-yl)-2,5-diphenyl-tetrazolium bromide; Sigma, Israel] solution in phosphate-buffered saline (PBS) was added to each well. Plates were incubated for 2 hrs at 37° C. followed by hydrocholoric acid-isopropanol addition (100 μl of 0.04N HCl/isopropanol). Plates were read using ELISA reader at a wavelength of 570 nm.
The MTT assay measures primary early changes within the cells, reflecting the integrity of the electron transport chain and provides a readout of cellular redox activity. This test is a specific, early indicator of the mechanism of β-amyloid-mediated cell death and can be used to detect rapid inhibitory response.

tau proteins = test: tau phosphorylation, AT8 immunoblot; format: cell-based; settings: 100 μM; to the control level
Text: Following the experimental design of Sadot et al., J. Neurochem. […] By linking an M1 agonist to an antioxidant moiety tau phophorylation may be decreased, providing a new therapeutic strategy in a variety of CNS disease states due to combined damage due to oxidative stress and tau hyperphosphorylation.

M1 mAChR = molecular target: T1, M1 mAChR (Rattus norvegicus, UniProt P08482); test: α-APPs secretion in cell cultures stably transfected with the M1 mAChR; format: cell-based; settings: for Emax: read-out: APPs levels, % of maximal effect of carbachol, at 100 μm
T1 construct: expressed in transfected cells; elsewhere rat pheochromocytoma cells
T1 sequence (P08482 1-460): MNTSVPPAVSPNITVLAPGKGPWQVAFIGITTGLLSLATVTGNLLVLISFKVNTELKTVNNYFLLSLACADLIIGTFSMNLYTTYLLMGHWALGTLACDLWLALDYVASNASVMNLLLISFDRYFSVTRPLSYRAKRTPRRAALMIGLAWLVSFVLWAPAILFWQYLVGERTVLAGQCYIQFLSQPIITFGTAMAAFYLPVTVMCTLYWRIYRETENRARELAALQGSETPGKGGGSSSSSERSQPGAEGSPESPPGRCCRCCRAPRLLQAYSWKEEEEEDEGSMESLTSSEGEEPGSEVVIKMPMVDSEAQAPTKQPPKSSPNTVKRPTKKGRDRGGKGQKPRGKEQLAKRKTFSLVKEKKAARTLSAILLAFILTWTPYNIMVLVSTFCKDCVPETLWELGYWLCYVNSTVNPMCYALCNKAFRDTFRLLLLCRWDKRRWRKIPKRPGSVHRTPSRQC
Procedure: Cells were plated in 6 well culture plates and used at the age of 3–5 days after plating. […] Cells exposed to medium alone are referred as controls.
Cell supernatants were collected into Eppendorff tubes containing a cocktail of protease inhibitors (5 units/ml aprotinin, […], […] and 10^−4M Phenylmethylsulfonylfluoride (PMSF, a protease inhibitor); Sigma, USA). The collected media were concentrated with Centricon tubes (Amicon, Beverly, Mass., USA) and kept frozen for α-APPs secretion determination. Equal amounts of protein (50–100 μg) were loaded and separated on 10% sodium dodecyl sulfate-polyacrylamide gel electrophoresis (SDS-PAGE). Followed by western blotting onto nitrocellulose membrane, blocked by fat-free milk, and probed for 24 hours at 4° C., with anti-Alzheimer's precursor protein, A4 monoclonal antibody 22C11 (0.25 μg/ml; Boehringer Mannheim, Germany). The nitrocellulose membranes were washed and incubated for 2 hours at room temperature with peroxidase-linked goat anti-mouse IgG antibodies (Jackson Immunoresearch, USA), followed by extensive washout and staining with enhanced chemiluminescence detection system (Amersham). Quantitative evaluation of the immunoreactive bands, on the exposed films, was performed by video-imaging densitometry (Gel-aid software; Galai Co., Israel). APPs levels were expressed as x-fold increase over basal levels.

C57BL/10SnJ (B10) mice = test: Morris water maze in small hippocampus mice; format: in vivo; settings: for Training, escape latency: 0.5 and 1 mg/kg i.p. (rivastigmine, nicotine 1 mg/kg); for Training, path length: AF150(S) both doses, AF267B the higher dose; for Reversal test, escape latency / Training, swimming speed / Transfer test, spatial bias: mouse, in vivo
Procedure: C57BL/10SnJ (B10) mice were selected due to their small hippocampi and decreased number of hippocampal pyramidal neurons; the cell loss seemed to be associated with poor spatial learning.
(§1) Each group of mice was randomly divided into 7 treatment groups (n=12-14/group). […] All tested compounds and saline were administered once a day for 4 days before starting the behavioral testing, and then for the duration of the 5-day experiment, 30 minutes before testing.
(§2) Training: Each mouse was trained for four consecutive days, four trials (one block) per day, in which the platform position remained constant and was located in the center of the southeast quadrant of the pool. Within each block of four trials, each mouse started at each of the starting locations, but the sequence of locations was randomly selected. A trial consisted of placing a mouse by hand into the water facing the wall of the pool at one of four starting locations, north, south, east or west, around the pool's perimeter. Escape latency (the time to find the platform), path length (the distance traveled by the mouse) and speed (the swimming rate of the mouse) were recorded on each trial by the monitoring system.
(§3) For each mouse, the path length, escape latency, and swimming speed of the four trials on each of the 4 training days were grouped into blocks (one block for each day). […] Specific comparisons were performed, using the simple main effects contrasts acalysis, which is specifically suited for testing significant interactions.
(§4) Transfer test. During trial No. 17, on the fourth day, the platform was entirely removed from the pool (a probe trial). In this trial, the mouse was placed into the water for a limited period (30 s), and its spatial bias was measured by recording the relative distribution of escape latency and path length over the four quadrants of the pool.
(§5) Reversal test. During trials 18–21, on the fifth day, the platform position was changed to the northwest quadrant, opposite to the training quadrant. Thus, during reversal learning, the platform location was moved relative to the configuration of objects within the room, but the pool occupied the same place within the room throughout the entire experiment. Testing of the rats and measures taken were the same as in training.
(§6) For each mouse, the escape latency, path length and swimming speed of the reversal test (trials No. 18–21) were grouped into one block.

C57BL6J mice = test: Morris water maze in normal hippocampus mice; format: in vivo; settings: for Reversal test, escape latency: AF150(S) 0.5 mg/kg; for Training, path length: AF150(S) only the higher dose; for Reversal test, swimming speed: AF150(S)-0.5 mg/kg, AF267B-1 mg/kg, rivastigmine, nicotine; for Training, swimming speed: mouse, in vivo
Procedure: as §1, §2, §3, §4, §5, §6

[2] = test system: Rat pheochromocytoma cells transfected with M1 mAChR; test: Neurite outgrowth response; format: cell-based; settings: blocked by atropine
Procedure: Rat pheochromocytoma cells transfected with M1 mAChR cells were grown as described in Gurwitz et al, (NeuroReport 6, 485,1995). For determination of neurite outgrowth, cells plated in six-well plates were used 3–5 days after-plating. Growth factors were added 1 day after plating and muscarinic agonists were added for the last 24 hrs.
Cells were observed under an inverted microscope. The percent of cells with neurite longer than cell diameter were scored in three random fields of several hundred cells from each well. Results were expressed as a percent of cells with neurites. Treatments were performed in triplicate cells. Both NGF (50 ng/ml) and EGF (100 ng/ml) were added 1 day after plating. Muscarinic agonists were added 24 hours before scoring.

ApoE = ApoE synthesis and secretion in primary type 1 astrocytes; format: cell-based, rat; settings: up to 96 hrs
Procedure: Primary cultures of type 1 astrocytes were derived from the cortex of Sprague Dawley rats. The compounds tested were dissolved in the culture media and added to cells for 24, 48, 72 and 96 hrs. Media was then removed and kept frozen until ApoE protein levels were evaluated by immunoblot analysis as described in Poirier et al Neuroscience 55: 81–90 (1993). Alternatively the methods of Cedazo-Minuez et al [Neurosci 105: 651–661, 2001} may be employed.

trihexyphenidyl rats = test: Passive avoidance in trihexyphenidyl-treated rats; format: in vivo, Wistar rats; settings: 24 h
Text: Trihexyphenidyl is a selective M1 muscarinic antagonist that crosses the blood brain barrier and induces memory and learning impairments (Bymaster et al. J Pharmacol Exp Ther 267: 16–24, 1993. Roldan et al Neurosci. Lett. 230: 93–96, 1997; Kimura et al Brain Res. 834: 6–12, 1999).
Naive Wistar rats were used in the experiments below. The passive avoidance (PA) task is comprised of training (acquisition) phase and a retention phase. In the training procedure each rat was individually placed in the small illuminated compartment and after 60 sec. of familiarization/adaptation, the door to the large compartment was opened and the latency to enter was measured (Initial Latency). Immediately following entry into the dark compartment, the door was closed and inescapable foot shock (0.6 mA for 3 sec) was delivered through the grid floor. A cutoff point of 180 sec was used for initial latency. […] After the acquisition trial the rat was returned to its home cage. Retention of the passive avoidance task was measured 24 h later, by again placing the rat in the light compartment and after a 60 sec adaptation interval, the door was opened and the latency to re-enter the dark compartment was measured. A cutoff point of 300 sec was used for retention latency.

Molecule: CCC1SC2(CCN(C)CC2)N(CCc2c[nH]c3ccccc23)C1=O (stereo not drawn) [AF703, 2-Ethyl-4-[2-(1H-indol-3-yl)-ethyl]-8-methyl-1-thia-4,8-diaza-spiro[4.5]decan-3-one]
- Protection against β-A25-35-induced cytotoxicity [1]: more effective than carbachol and AF267B

Molecule: (S)-Ethyl-4-(3-1H-indol-3-yl-propionyl)-8-methyl-1-thia-4,8-diaza-spiro[4.5]decan-3-one [AF704B]
- tau phosphorylation (AT8) (tau proteins): induce dephosphorylation of tau proteins
- Protection against β-A25-35-induced cytotoxicity [1]: more effective than carbachol and AF267B

Molecule: CCN(C)C(=O)Oc1cccc([C@H](C)N(C)C)c1 [rivastigmine, reference compound]
- α-APPs secretion, comparison in words (M1 mAChR): not effective
- Training, escape latency (C57BL/10SnJ (B10) mice): positively affected
- Training, path length (C57BL/10SnJ (B10) mice): positively affected
- Reversal test, escape latency (C57BL/10SnJ (B10) mice): no significant effect
- Training, swimming speed (C57BL/10SnJ (B10) mice): Neither rivastigmine nor nicotine had any significant effect
- Transfer test, spatial bias (C57BL/10SnJ (B10) mice): complete spatial bias
- Reversal test, escape latency (C57BL6J mice): no significant effect
- Training, path length (C57BL6J mice): neither AF267B nor rivastigmine had any effect
- Reversal test, swimming speed (C57BL6J mice): significantly decreased
- Training, swimming speed (C57BL6J mice): significantly decreased the swimming speed

Molecule: CC[C@@H]1SC2(CCN(C)CC2)N(S(=O)(=O)c2ccc(F)cc2)C1=O [AF700, (S)-2-Ethyl-4-(4-fluoro-benzenesulfonyl)-8-methyl-1-thia-4,8-diaza-spiro[4.5]decan-3-one]
- Emax (M1 mAChR): 50%
- Neurotrophic effect [2]: neurotrophic
- Protection against β-A25-35-induced cytotoxicity [1]: more effective than carbachol and AF267B

Molecule: CN1CCCC1c1cccnc1 (stereo not drawn) [nicotine, reference compound]
- Training, escape latency (C57BL/10SnJ (B10) mice): no improving effect
- Training, path length (C57BL/10SnJ (B10) mice): no significant effect
- Reversal test, escape latency (C57BL/10SnJ (B10) mice): no significant effect
- Training, swimming speed (C57BL/10SnJ (B10) mice): Neither rivastigmine nor nicotine had any significant effect
- Transfer test, spatial bias (C57BL/10SnJ (B10) mice): partial spatial bias
- Training, escape latency (C57BL6J mice; 0.5 and 1 mg/kg i.p. (rivastigmine, nicotine 1 mg/kg)): degraded the performance
- Reversal test, escape latency (C57BL6J mice): no significant effect
- Training, path length (C57BL6J mice): no significant effect
- Reversal test, swimming speed (C57BL6J mice): significantly decreased
- Training, swimming speed (C57BL6J mice): significantly decreased the swimming speed

Molecule: CC1OC2(CS1)CN1CCC2CC1 (stereo not drawn) [AF102B, reference compound]
- ApoE production (ApoE): inactive
- Retention latency (trihexyphenidyl rats; 1 mg/kg p.o.): 234.4 ± 35.3 s

Molecule: CCC1SC2(CCN(C)CC2)N(C(=O)CCc2c[nH]c3ccccc23)C1=O (racemic) [AF704, 2-Ethyl-4-(3-1H-indol-3-yl-propionyl)-8-methyl-1-thia-4,8-diaza-spiro[4.5]decan-3-one]
- Emax (M1 mAChR): 50%
- Neurotrophic effect [2]: neurotrophic
- tau phosphorylation (AT8) (tau proteins): induce dephosphorylation of tau proteins
- Protection against β-A25-35-induced cytotoxicity [1]: more effective than carbachol and AF267B
- Retention latency (trihexyphenidyl rats; 0.1 mg/kg, po): 214.70 ± 36.63 s
- Retention latency (trihexyphenidyl rats; 0.5 mg/kg p.o.): 283.50 ± 17.39 s
- Retention latency (trihexyphenidyl rats; 1 mg/kg p.o.): 274.44 ± 26.97 s

Molecule: CCC1SC2(CCN(C)CC2)NC1=O (racemic) [AF267, 2-ethyl-8-methyl-1-thia-4,8-diaza-spiro[4.5]decan-3-one]
- α-APPs secretion, comparison in words (M1 mAChR): AF267B is more efficacious and more potent than its racemate
